Measured values published in patent publication US20120029187A1, “HALOALKYLSULFONANILIDE DERIVATIVE” (Nissan Chemical Industries, Ltd., priority 2009, published 2012).

Assays:
Type in all cases: in vivo
[1] = test system: water foxtail; assay: Test Example 3: herbicidal effects in soil treatment; conditions: dose 6.3 g/a
In short: (§1)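 Seeds were sown in sterilized diluvial soil and covered with about 1.5 cm of soil. Compounds, formulated as emulsifiable concentrates and diluted with water, were sprayed evenly over the soil surface at set doses in g/a. Herbicidal effect was scored on a rating scale three weeks later.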

[2] = test system: redroot pigweed; assay: as above; conditions: dose 6.3 g/a
In short: as §1

[3] = test system: velvetleaf; assay: as above; conditions: dose 6.3 g/a
In short: as §1

[4] = test system: posumbu knotweed; assay: as above; conditions: dose 6.3 g/a
In short: as §1

[5] = test system: Italian ryegrass; assay: as above; conditions: dose 6.3 g/a
In short: as §1

[6] = test system: barnyardgrass; assay: as above; conditions: dose 6.3 g/a
In short: as §1

[7] = test system: wild oat; assay: as above; conditions: dose 6.3 g/a
In short: as §1

[8] = test system: common ragweed; assay: as above; conditions: dose 6.3 g/a
In short: as §1

[9] = test system: large crabgrass; assay: as above; conditions: dose 6.3 g/a
In short: as §1

[10] = test system: common chickweed; assay: as above; conditions: dose 6.3 g/a
In short: as §1

[11] = test system: common lambsquater; assay: as above; conditions: dose 6.3 g/a
In short: as §1

[12] = test system: giant foxtail; assay: as above; conditions: dose 6.3 g/a
In short: as §1

[13] = test system: transplanted rice; assay: Test Example 1: preemergence treatment under submerged conditions, effect on crop; conditions: dose 2.52 g/a
In short: (§2)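 Weed seeds and 2.5-leaf rice seedlings shared each flooded cup of alluvial soil. Dosing, expressed as g per are, was by pouring water-diluted emulsifiable concentrate onto the surface on sowing day. Mortality was graded 0 to 5 after three weeks' growth.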

[14] = test system: water foxtail; assay: Test Example 4: herbicidal effect in foliage treatment; conditions: dose 6.3 g/a, three weeks after application
In short: (§3)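 14-day greenhouse-grown plants (25–30° C) sprayed on foliage with diluted EC; dose as g/a; effect graded after 3 weeks.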

[15] = test system: redroot pigweed; assay: as above; conditions: dose 6.3 g/a, three weeks after application
In short: as §3

[16] = test system: velvetleaf; assay: as above; conditions: dose 6.3 g/a, three weeks after application
In short: as §3

[17] = test system: posumbu knotweed; assay: as above; conditions: dose 6.3 g/a, three weeks after application
In short: as §3

[18] = test system: Italian ryegrass; assay: as above; conditions: dose 6.3 g/a, three weeks after application
In short: as §3

[19] = test system: barnyardgrass; assay: as above; conditions: dose 6.3 g/a, three weeks after application
In short: as §3

[20] = test system: wild oat; assay: as above; conditions: dose 6.3 g/a, three weeks after application
In short: as §3

[21] = test system: common ragweed; assay: as above; conditions: dose 6.3 g/a, three weeks after application
In short: as §3

[22] = test system: beadstraw; assay: as above; conditions: dose 6.3 g/a, three weeks after application
In short: as §3

[23] = test system: large crabgrass; assay: as above; conditions: dose 6.3 g/a, three weeks after application
In short: as §3

[24] = test system: common chickweed; assay: as above; conditions: dose 6.3 g/a, three weeks after application
In short: as §3

[25] = test system: common lambsquater; assay: as above; conditions: dose 6.3 g/a, three weeks after application
In short: as §3

[26] = test system: giant foxtail; assay: as above; conditions: dose 6.3 g/a, three weeks after application
In short: as §3

[27] = test system: bulrush; assay: Test Example 2: herbicidal effects during the vegetation period under submerged conditions; conditions: treatment during the vegetation period under submerged conditions; dose 2.52 g/a
In short: (§4)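 Barnyardgrass, bulrush and ducksalad were co-sown in alluvial soil flooded to 4 cm and grown in a greenhouse at 25 to 30° C. At the 1- or 2-leaf stage, water-diluted emulsifiable concentrates went onto the water surface at set doses (g/a). Herbicidal effect was scored three weeks later on a graded scale.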

[28] = test system: barnyardgrass; assay: as above; conditions: treatment during the vegetation period under submerged conditions; dose 2.52 g/a
In short: as §4

[29] = test system: ducksalad; assay: as above; conditions: treatment during the vegetation period under submerged conditions; dose 2.52 g/a
In short: as §4

[30] = test system: bulrush; assay: Test Example 1: herbicidal effects in preemergence treatment under submerged conditions; conditions: dose 2.52 g/a
In short: as §2

[31] = test system: barnyardgrass; assay: as above; conditions: dose 2.52 g/a
In short: as §2

[32] = test system: ducksalad; assay: as above; conditions: dose 2.52 g/a
In short: as §2

In the case of `CCOC(=O)N(c1ccccc1CN1CCOCC1=O)S(=O)(=O)C(F)(F)F` [Compound I-2, 4-[2-(N-ethoxycarbonyl-N-trifluoromethanesulfonyl)aminobenzyl]-1,4-oxazinan-3-one], the “G: water foxtail, herbicidal effect (evaluation scale 0-5)” value [1] is reported as 5 (mortality of 90% or above (nearly complete death)), the “K: redroot pigweed, herbicidal effect (evaluation scale 0-5)” value [2] is reported as 5 (mortality of 90% or above (nearly complete death)) and the “I: velvetleaf, herbicidal effect (evaluation scale 0-5)” value [3] is reported as 5 (mortality of 90% or above (nearly complete death)). For the same compound, the “M: posumbu knotweed, herbicidal effect (evaluation scale 0-5)” value [4] was 5 (mortality of 90% or above (nearly complete death)), the “H: Italian ryegrass, herbicidal effect (evaluation scale 0-5)” value [5] was 5 (mortality of 90% or above (nearly complete death)) and the “A: barnyardgrass, herbicidal effect (evaluation scale 0-5)” value [6] was 5 (mortality of 90% or above (nearly complete death)). For the same compound, the “F: wild oat, herbicidal effect (evaluation scale 0-5)” value [7] was 3 (mortality of at least 40% and less than 70%), the “J: common ragweed, herbicidal effect (evaluation scale 0-5)” value [8] was 5 (mortality of 90% or above (nearly complete death)) and the “D: large crabgrass, herbicidal effect (evaluation scale 0-5)” value [9] was 5 (mortality of 90% or above (nearly complete death)). For the same compound, the “N: common chickweed, herbicidal effect (evaluation scale 0-5)” value [10] was 5 (mortality of 90% or above (nearly complete death)), the “L: common lambsquater, herbicidal effect (evaluation scale 0-5)” value [11] was 5 (mortality of 90% or above (nearly complete death)) and the “E: giant foxtail, herbicidal effect (evaluation scale 0-5)” value [12] was 5 (mortality of 90% or above (nearly complete death)). For the same compound, the “a: transplanted rice, effect on crop (evaluation scale 0-5)” value [13] was 1 (mortality of at least 5% and less than 20%), the “G: water foxtail, herbicidal effect” value [14] was 5 (mortality of 90% or above (nearly complete death)) and the “K: redroot pigweed, herbicidal effect” value [15] was 3 (mortality of at least 40% and less than 70%). The “I: velvetleaf, herbicidal effect” value [16] was 5 (mortality of 90% or above (nearly complete death)), the “M: posumbu knotweed, herbicidal effect” value [17] was 4 (mortality of at least 70% and less than 90%) and the “H: Italian ryegrass, herbicidal effect” value [18] was 4 (mortality of at least 70% and less than 90%). The “A: barnyardgrass, herbicidal effect” value [19] was 5 (mortality of 90% or above (nearly complete death)), the “F: wild oat, herbicidal effect” value [20] was 3 (mortality of at least 40% and less than 70%) and the “J: common ragweed, herbicidal effect” value [21] was 3 (mortality of at least 40% and less than 70%). For the same compound, the “O: beadstraw, herbicidal effect” value [22] was 5 (mortality of 90% or above (nearly complete death)), the “D: large crabgrass, herbicidal effect” value [23] was 5 (mortality of 90% or above (nearly complete death)) and the “N: common chickweed, herbicidal effect” value [24] was 4 (mortality of at least 70% and less than 90%). For the same compound, the “L: common lambsquater, herbicidal effect” value [25] was 4 (mortality of at least 70% and less than 90%), the “E: giant foxtail, herbicidal effect” value [26] was 5 (mortality of 90% or above (nearly complete death)) and the “B: bulrush, herbicidal effect (evaluation scale 0-5)” value (“B: bulrush, herbicidal effect” below) [27] was 5 (mortality of 90% or above (nearly complete death)). The “A: barnyardgrass, herbicidal effect (evaluation scale 0-5)” value [28] was 5 (mortality of 90% or above (nearly complete death)), the “C: ducksalad, herbicidal effect (evaluation scale 0-5)” value (shortened to “C: ducksalad, herbicidal effect”) [29] was 5 (mortality of 90% or above (nearly complete death)) and the “B: bulrush, herbicidal effect” value [30] was 5 (mortality of 90% or above (nearly complete death)). The “A: barnyardgrass, herbicidal effect (evaluation scale 0-5)” value [31] was 5 (mortality of 90% or above (nearly complete death)) and the “C: ducksalad, herbicidal effect” value [32] was 5 (mortality of 90% or above (nearly complete death)).
`CCOC(=O)N(c1ccccc1CN1CCOC(C)C1=O)S(=O)(=O)C(F)(F)F` (stereo not shown) [Compound I-5, 2-methyl-4-[2-(N-ethoxycarbonyl-N-trifluoromethanesulfonyl)aminobenzyl]-1,4-oxazinan-3-one] was tested, and the “G: water foxtail, herbicidal effect (evaluation scale 0-5)” value [1] was 5 (mortality of 90% or above (nearly complete death)), the “K: redroot pigweed, herbicidal effect (evaluation scale 0-5)” value [2] was 4 (mortality of at least 70% and less than 90%) and the “I: velvetleaf, herbicidal effect (evaluation scale 0-5)” value [3] was 4 (mortality of at least 70% and less than 90%). The “M: posumbu knotweed, herbicidal effect (evaluation scale 0-5)” value [4] was 4 (mortality of at least 70% and less than 90%), the “H: Italian ryegrass, herbicidal effect (evaluation scale 0-5)” value [5] was 1 (mortality of at least 5% and less than 20%) and the “A: barnyardgrass, herbicidal effect (evaluation scale 0-5)” value [6] was 5 (mortality of 90% or above (nearly complete death)). The “F: wild oat, herbicidal effect (evaluation scale 0-5)” value [7] was 3 (mortality of at least 40% and less than 70%), the “J: common ragweed, herbicidal effect (evaluation scale 0-5)” value [8] was 4 (mortality of at least 70% and less than 90%) and the “D: large crabgrass, herbicidal effect (evaluation scale 0-5)” value [9] was 5 (mortality of 90% or above (nearly complete death)). For the same compound, the “N: common chickweed, herbicidal effect (evaluation scale 0-5)” value [10] was 5 (mortality of 90% or above (nearly complete death)), the “L: common lambsquater, herbicidal effect (evaluation scale 0-5)” value [11] was 5 (mortality of 90% or above (nearly complete death)) and the “E: giant foxtail, herbicidal effect (evaluation scale 0-5)” value [12] was 5 (mortality of 90% or above (nearly complete death)). For the same compound, the “a: transplanted rice, effect on crop (evaluation scale 0-5)” value [13] was 0 (mortality of less than 5% (almost ineffective)), the “G: water foxtail, herbicidal effect” value [14] was 5 (mortality of 90% or above (nearly complete death)) and the “K: redroot pigweed, herbicidal effect” value [15] was 3 (mortality of at least 40% and less than 70%). The “I: velvetleaf, herbicidal effect” value [16] was 4 (mortality of at least 70% and less than 90%), the “M: posumbu knotweed, herbicidal effect” value [17] was 4 (mortality of at least 70% and less than 90%) and the “H: Italian ryegrass, herbicidal effect” value [18] was 4 (mortality of at least 70% and less than 90%). The “A: barnyardgrass, herbicidal effect” value [19] was 5 (mortality of 90% or above (nearly complete death)), the “F: wild oat, herbicidal effect” value [20] was 2 (mortality of at least 20% and less than 40%) and the “J: common ragweed, herbicidal effect” value [21] was 4 (mortality of at least 70% and less than 90%). The “O: beadstraw, herbicidal effect” value [22] was 3 (mortality of at least 40% and less than 70%), the “D: large crabgrass, herbicidal effect” value [23] was 5 (mortality of 90% or above (nearly complete death)) and the “N: common chickweed, herbicidal effect” value [24] was 4 (mortality of at least 70% and less than 90%). For the same compound, the “L: common lambsquater, herbicidal effect” value [25] was 3 (mortality of at least 40% and less than 70%), the “E: giant foxtail, herbicidal effect” value [26] was 4 (mortality of at least 70% and less than 90%) and the “B: bulrush, herbicidal effect” value [27] was 5 (mortality of 90% or above (nearly complete death)). For the same compound, the “A: barnyardgrass, herbicidal effect (evaluation scale 0-5)” value [28] was 5 (mortality of 90% or above (nearly complete death)), the “C: ducksalad, herbicidal effect” value [29] was 5 (mortality of 90% or above (nearly complete death)) and the “B: bulrush, herbicidal effect” value [30] was 5 (mortality of 90% or above (nearly complete death)). The “A: barnyardgrass, herbicidal effect (evaluation scale 0-5)” value [31] was 5 (mortality of 90% or above (nearly complete death)) and the “C: ducksalad, herbicidal effect” value [32] was 5 (mortality of 90% or above (nearly complete death)).
